PubChem BioAssay (NCI)
Values joined by “and” are separate entries in the source; they are usually repeats but may differ in a detail not shown here. Identical values can stand only once.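 The compound was tested at five concentrations on cells cultured in 96-well plates, with a 48-hour exposure period. GI50: concentration for 50% inhibition of growth. Definition used: TGI = concentration required for complete inhibition of growth.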

Legend:
Experiment in all cases: NCI anticancer screen, dose series, 48 h
786-0 renal = test system: 786-0 renal
A549 NSCLC = test system: A549 NSCLC
HL-60(TB) leukemia = test system: HL-60(TB) leukemia
IGROV1 ovarian = test system: IGROV1 ovarian
NCI-H460 lung = test system: NCI-H460 lung
OVCAR-3 ovarian = test system: OVCAR-3 ovarian
OVCAR-8 ovarian = test system: OVCAR-8 ovarian
SK-MEL-28 melanoma = test system: SK-MEL-28 melanoma
SR leukemia = test system: SR leukemia
CCRF-CEM leukemia = test system: CCRF-CEM leukemia

| Structure (SMILES) | TGI (786-0 renal) | TGI (A549 NSCLC) | TGI (HL-60(TB) leukemia) | TGI (IGROV1 ovarian) [µM] | TGI (NCI-H460 lung) | TGI (OVCAR-3 ovarian) | TGI (OVCAR-8 ovarian) | TGI (SK-MEL-28 melanoma) [µM] | TGI (SR leukemia) [µM] | TGI (CCRF-CEM leukemia) [µM] | GI50 (786-0 renal) | GI50 (A549 NSCLC) [µM] | GI50 (CCRF-CEM leukemia) [µM] | GI50 (HL-60(TB) leukemia) | GI50 (NCI-H460 lung) [µM] | GI50 (OVCAR-3 ovarian) [µM] | GI50 (OVCAR-8 ovarian) [µM] | GI50 (SK-MEL-28 melanoma) [µM] | GI50 (SR leukemia) [µM] | GI50 (IGROV1 ovarian) [µM] |
| --- | --- | --- | --- | --- | --- | --- | --- | --- | --- | --- | --- | --- | --- | --- | --- | --- | --- | --- | --- | --- |
| Cc1cc(Cl)ccc1OCC(=O)Oc1c(Cl)c(Cl)c(Cl)c(Cl)c1Cl | 85.5 µM | 66.3 µM | > 100 µM | 79.5 | 51.9 µM | 39 µM | 66.8 µM | > 100 | 60 |  |  |  |  |  |  |  |  |  |  |  |
| COc1ccc2c(CCNS(=O)(=O)c3ccccc3)c(C(C)=O)[nH]c2c1[N+](=O)[O-] | > 100 µM | > 100 µM | > 100 µM | > 100 | > 100 µM | > 100 µM | > 100 µM |  | > 100 | > 100 |  |  |  |  |  |  |  |  |  |  |
| O=C(O)c1cc2c3c(c1)[C@H]1C=CC[C@H]1CN3CC1CC=CC21 (some centres not stated) | > 100 µM | > 100 µM | > 100 µM | > 100 | > 100 µM | > 100 µM | > 100 µM |  | > 100 | > 100 |  |  |  |  |  |  |  |  |  |  |
| C[C@]1(O)CC(=O)[C@]2(O)C3=C(C=C[C@]2(O)C1)C(=O)c1c(O)cccc1C3=O | 8.5 µM | 38.6 µM | 4.5 µM |  | 23.8 µM | 2.62 µM | 7.75 µM | 4.25 | 4.95 | 3.33 | 2.88 µM | 16.3 | 0.342 | 2.05 µM | 5.15 | 1.23 | 2.67 | 2.11 | 0.635 |  |
| CC(=O)N1C(=O)C(=O)c2cc(Cl)ccc21 | > 100 µM | > 100 µM | > 100 µM | > 100 | > 100 µM | > 100 µM | > 100 µM | > 100 | > 100 |  |  |  |  |  |  |  |  |  |  |  |
| S=C(S)NCCCn1ccnc1 | > 100 µM | > 100 µM | > 100 µM | > 100 | > 100 µM | > 100 µM | > 100 µM | > 100 | > 100 |  |  |  |  |  |  |  |  |  |  |  |
| Cn1c(-c2c(N)n(Cc3ccc(Cl)cc3)c3nc(C#N)c(C#N)nc23)nc2ccccc21 | 17.4 µM | 19.8 µM | > 50 µM | 7.71 | 25.7 µM | 6.2 µM | 23.4 µM | 13.9 | > 50 |  | 7.69 µM | 5.02 |  | 16.9 µM | 2.7 | 1.37 | 5.37 | 2.86 | 8.26 | 1.54 |
| CN1CCN(c2ccc(NC3=C(Cl)C(=O)c4ncccc4C3=O)cc2C(F)(F)F)CC1 | 3.32 µM | 38 µM | 4.73 µM | 3.18 | 34.8 µM | 1.11 µM | 12.4 µM | 3.45 | 3.66 |  | 1.84 µM | 18.8 |  | 1.79 µM | 17.4 | 0.297 | 3.14 | 1.99 | 0.355 | 1.56 |
| CC(=O)C1C(=O)C(=O)N(c2ccc(Cl)cc2C)C1=O (configuration not stated) | > 100 µM | > 100 µM | > 100 µM | > 100 | > 100 µM |  | > 100 µM | > 100 | > 100 | > 100 |  |  |  |  |  |  |  |  |  |  |
| CN1NC(c2ccccc2)=C(C#N)C(=O)CC1c1ccccc1Cl (configuration not stated) | > 100 µM | > 100 µM | > 100 µM |  | > 100 µM |  |  | > 100 | > 100 | > 100 |  |  |  |  |  |  |  |  |  |  |
| CCCCCCCCCCSS(=O)(=O)c1ccc(C)cc1 | 17.8 µM | 29.8 µM | 11.6 µM | 33.7 | 23.9 µM | 33.1 µM | 32.2 µM | 10.2 | 27.8 |  |  |  |  |  |  |  |  |  |  |  |
| CCc1nc2cc(/C=C/C(=O)NO)c(F)cc2c(=O)n1CCc1ccccc1 | 4.49 µM | 5.39 µM | > 100 µM |  | 3.4 µM | 4.76 µM | 9.22 µM | 6.97 | > 100 | > 100 | 1.7 µM | 1.35 | 0.564 | 3.71 µM | 0.349 | 0.385 | 0.753 | 1.37 | 0.731 |  |
| CCN(CC)CCNc1ccc(CO)c2sc3ccccc3c(=O)c12 | 18.8 µM and 52.1 µM | 13.6 µM and 21.4 µM and 18.2 µM | 24.5 µM [middle of 4 runs] |  | 11 µM and 15.1 µM and 12.2 µM | 20 µM [middle of 4 runs] | 14 µM and 17.8 µM |  |  |  | 4.99 µM and 19.4 µM | 3.2 |  | 8.47 µM [middle of 4 runs] | 3.44 |  | 2.42 | 2.29 | 2.29 |  |
| O=C(CN1C(=O)c2ccccc2C1=O)OC1C=CCCC1 (configuration not stated) | > 100 µM | > 100 µM | > 100 µM | > 100 | > 100 µM |  | > 100 µM | > 100 | > 100 | > 100 |  |  |  |  |  |  |  |  |  |  |
| O=C1c2ccccc2C(=O)N1C/C=N/NS(=O)(=O)c1ccc(Cl)cc1 | > 100 µM | > 100 µM | > 100 µM | > 100 | > 100 µM |  | > 100 µM |  | > 100 | > 100 |  |  |  |  |  |  |  |  |  |  |
